Measurements: patent US9156829B2, “Cycloalkyl and heterocycloalkyl compounds as orexin receptor antagonists” (Takeda Pharmaceutical Company Limited, priority 2014, dated 2015)

Key:
human orexin receptor 1 = human orexin receptor 1 (Homo sapiens (Human), UniProt O43613); assay: Orexin antagonist activity, intracellular calcium FLIPR assay, RBL-2H3 cells expressing human orexin receptor 1; assay type: cell-based; settings: RBL-2H3 cells stably expressing human orexin receptor 1; orexin-A at approx. 80% maximal response; compound added 15 minutes before; read-out: Human Orexin1R IC50
human orexin receptor 1, sequence (O43613 whole entry): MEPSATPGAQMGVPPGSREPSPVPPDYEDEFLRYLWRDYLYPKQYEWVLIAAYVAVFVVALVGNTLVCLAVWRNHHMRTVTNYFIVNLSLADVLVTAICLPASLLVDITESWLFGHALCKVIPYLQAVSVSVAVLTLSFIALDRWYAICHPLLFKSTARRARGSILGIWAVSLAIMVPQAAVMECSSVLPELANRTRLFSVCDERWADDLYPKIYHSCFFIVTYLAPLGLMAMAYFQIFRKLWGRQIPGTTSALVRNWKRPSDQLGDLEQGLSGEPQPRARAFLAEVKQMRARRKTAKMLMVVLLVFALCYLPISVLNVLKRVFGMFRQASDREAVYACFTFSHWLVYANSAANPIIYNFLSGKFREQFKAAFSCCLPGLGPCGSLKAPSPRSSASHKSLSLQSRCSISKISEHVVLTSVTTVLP

human orexin receptor 2 = human orexin receptor 2 (Homo sapiens (Human), UniProt O43614); assay: Orexin antagonist activity, intracellular calcium FLIPR assay, RBL-2H3 cells expressing human orexin receptor 2; assay type: cell-based; settings: RBL-2H3 cells stably expressing human orexin receptor 2; orexin-A at approx. 80% maximal response; compound added 15 minutes before; read-out: Human Orexin2R IC50
human orexin receptor 2, sequence (O43614 whole entry): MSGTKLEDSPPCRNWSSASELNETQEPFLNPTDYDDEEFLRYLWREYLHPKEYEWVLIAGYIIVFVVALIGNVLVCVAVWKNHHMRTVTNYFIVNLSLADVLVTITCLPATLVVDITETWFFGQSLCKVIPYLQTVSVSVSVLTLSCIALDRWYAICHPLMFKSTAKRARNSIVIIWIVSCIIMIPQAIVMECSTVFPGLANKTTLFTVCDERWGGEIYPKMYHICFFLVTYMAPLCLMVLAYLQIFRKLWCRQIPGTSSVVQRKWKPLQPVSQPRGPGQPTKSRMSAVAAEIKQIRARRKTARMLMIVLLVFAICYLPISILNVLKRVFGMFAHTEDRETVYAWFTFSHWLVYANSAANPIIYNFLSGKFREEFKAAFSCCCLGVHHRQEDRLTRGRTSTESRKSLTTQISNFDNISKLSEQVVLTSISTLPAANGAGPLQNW

Cc1ccc(-n2nccn2)c(C(=O)N[C@H]2CCC[C@@H]2Nc2cnc(C(F)(F)F)cn2)c1 [Example 7, 5-Methyl-2-(2H-1,2,3-triazol-2-yl)-N-[(1S,2S)-2-{[5-(trifluoromethyl)pyrazin-2-yl]amino}cyclopentyl]benzamide]
IC50 (human orexin receptor 1): 51 nM | IC50 (human orexin receptor 2): > 10000 nM

Cc1nc(C(F)(F)F)cnc1N[C@H]1CCC[C@@H]1NC(=O)c1cc(F)ccc1-c1ncccn1 [Example 80, 5-Fluoro-N-[(1S,2S)-2-{[3-methyl-5-(trifluoromethyl)pyrazin-2-yl]amino}cyclopentyl]-2-(pyrimidin-2-yl)benzamide]
IC50 (human orexin receptor 1): 35 nM | IC50 (human orexin receptor 2): > 10000 nM

COc1cccc(OC)c1C(=O)N[C@H]1CCC[C@@H]1Nc1cnc(C(F)(F)F)cn1 [Example 34, 2,6-Dimethoxy-N-[(1S,2S)-2-{[5-(trifluoromethyl)pyrazin-2-yl]amino}cyclopentyl]benzamide]
IC50 (human orexin receptor 1): 523 nM | IC50 (human orexin receptor 2): > 10000 nM

CCc1nc(C(F)(F)F)cnc1N[C@H]1CCC[C@@H]1NC(=O)c1ncccc1-n1nccn1 [Example 125, N-[(1S,2S)-2-{[3-Ethyl-5-(trifluoromethyl)pyrazin-2-yl]amino}cyclopentyl]-3-(2H-1,2,3-triazol-2-yl)pyridine-2-carboxamide]
IC50 (human orexin receptor 1): 14 nM | IC50 (human orexin receptor 2): > 10000 nM
